Assay results from patent publication US20170073337A1, “DIHYDROTHIAZINE AND DIHYDROOXAZINE DERIVATIVES HAVING BACE1 INHIBITORY ACTIVITY” (Shionogi & Co., Ltd., priority 2014, published 2017).
In brackets after ≈: the same amount, converted by molar mass. Read-outs that look alike come from different tables or passages of the source.

Key:
[1] = target: T1, human ether-a-go-go related gene (hERG) channel (Homo sapiens, UniProt Q12809); experiment: hERG test; assay type: cell-based; conditions: % inhibition of IKr tail peak current at 3 uM; CHO cells expressing hERG
T1 construct: expressed in transfected cells; host or cells: CHO cells
T1 sequence (Q12809 whole entry): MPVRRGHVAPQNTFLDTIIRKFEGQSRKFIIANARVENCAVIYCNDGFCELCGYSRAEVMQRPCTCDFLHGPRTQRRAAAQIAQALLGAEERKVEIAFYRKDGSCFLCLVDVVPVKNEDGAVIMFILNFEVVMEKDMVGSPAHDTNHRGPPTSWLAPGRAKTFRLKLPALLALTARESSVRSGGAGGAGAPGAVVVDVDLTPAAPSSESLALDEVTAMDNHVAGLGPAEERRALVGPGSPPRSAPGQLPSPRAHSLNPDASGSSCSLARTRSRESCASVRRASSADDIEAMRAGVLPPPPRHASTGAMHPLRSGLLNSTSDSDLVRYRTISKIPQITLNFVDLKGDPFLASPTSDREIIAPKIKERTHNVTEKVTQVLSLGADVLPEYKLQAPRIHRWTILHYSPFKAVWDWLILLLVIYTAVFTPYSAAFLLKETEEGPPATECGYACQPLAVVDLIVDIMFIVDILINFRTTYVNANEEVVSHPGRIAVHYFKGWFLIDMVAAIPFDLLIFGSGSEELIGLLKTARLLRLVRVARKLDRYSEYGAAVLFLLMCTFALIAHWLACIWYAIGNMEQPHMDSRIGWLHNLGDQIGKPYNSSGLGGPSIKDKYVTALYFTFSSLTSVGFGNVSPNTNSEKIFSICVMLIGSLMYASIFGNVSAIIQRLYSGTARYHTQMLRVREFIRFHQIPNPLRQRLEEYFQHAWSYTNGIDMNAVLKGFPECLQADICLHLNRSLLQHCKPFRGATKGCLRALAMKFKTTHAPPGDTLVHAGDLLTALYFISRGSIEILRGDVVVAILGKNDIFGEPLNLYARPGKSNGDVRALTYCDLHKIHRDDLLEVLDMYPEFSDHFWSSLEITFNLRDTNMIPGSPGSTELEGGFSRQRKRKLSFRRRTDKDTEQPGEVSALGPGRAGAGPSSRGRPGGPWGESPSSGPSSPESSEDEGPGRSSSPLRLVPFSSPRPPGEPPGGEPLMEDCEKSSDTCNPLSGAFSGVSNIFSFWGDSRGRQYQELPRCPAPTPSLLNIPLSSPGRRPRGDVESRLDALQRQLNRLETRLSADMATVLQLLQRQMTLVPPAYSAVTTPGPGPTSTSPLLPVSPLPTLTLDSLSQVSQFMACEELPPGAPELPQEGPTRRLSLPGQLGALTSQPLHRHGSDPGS
Summary of the method: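 IKr was recorded from hERG-expressing CHO cells by automated whole-cell patch clamp at a holding potential of −80 mV. A −50 mV leak step was followed by a 2 s depolarization to +20 mV and a 2 s repolarization to −50 mV, when current was measured.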

CYP2C19 = target: T2, CYP2C19 (Homo sapiens, UniProt P33261); experiment: CYP inhibition test (CYP2C19); assay type: in vitro ADME; conditions: pooled human liver microsomes; mephenytoin 4′-hydroxylation
T2 construct: The commercially available pooled human liver microsomes are used as an enzyme resource; from tissue; host or cells: pooled human liver microsomes
T2 sequence (P33261 whole entry): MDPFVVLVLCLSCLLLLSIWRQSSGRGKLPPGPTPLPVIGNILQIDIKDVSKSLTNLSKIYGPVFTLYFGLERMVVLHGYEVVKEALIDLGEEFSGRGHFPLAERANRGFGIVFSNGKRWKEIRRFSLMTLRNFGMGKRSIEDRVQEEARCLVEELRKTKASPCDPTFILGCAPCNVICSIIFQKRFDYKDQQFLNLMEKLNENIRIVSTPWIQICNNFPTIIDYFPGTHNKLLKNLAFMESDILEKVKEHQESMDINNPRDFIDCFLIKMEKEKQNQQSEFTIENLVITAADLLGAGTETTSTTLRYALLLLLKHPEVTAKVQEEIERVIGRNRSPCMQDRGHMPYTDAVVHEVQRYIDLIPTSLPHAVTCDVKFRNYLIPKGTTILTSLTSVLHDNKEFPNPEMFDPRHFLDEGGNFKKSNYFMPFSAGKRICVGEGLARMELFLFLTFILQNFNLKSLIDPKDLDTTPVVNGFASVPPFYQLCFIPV
Summary of the method: (§1)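 Pooled human liver microsomes (0.2 mg protein/mL) were incubated at 37 °C with NADPH, compound at 1, 5, 10, 20 μmol/L and marker substrates: tolbutamide 100 μmol/L (2C9), S-mephenytoin 50 μmol/L (2C19), dextromethorphan 5 μmol/L (2D6), terfenadine 1 μmol/L (3A4). Metabolites were measured by LC/MS/MS; IC50 came from logistic fitting against DMSO control.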

CYP1A2 = target: T3, CYP1A2 (Homo sapiens, UniProt P05177); experiment: CYP inhibition test (CYP1A2); assay type: in vitro ADME; conditions: pooled human liver microsomes; 7-ethoxyresorufin O-deethylation
T3 construct: The commercially available pooled human liver microsomes are used as an enzyme resource; from tissue; host or cells: pooled human liver microsomes
T3 sequence (P05177 1-516): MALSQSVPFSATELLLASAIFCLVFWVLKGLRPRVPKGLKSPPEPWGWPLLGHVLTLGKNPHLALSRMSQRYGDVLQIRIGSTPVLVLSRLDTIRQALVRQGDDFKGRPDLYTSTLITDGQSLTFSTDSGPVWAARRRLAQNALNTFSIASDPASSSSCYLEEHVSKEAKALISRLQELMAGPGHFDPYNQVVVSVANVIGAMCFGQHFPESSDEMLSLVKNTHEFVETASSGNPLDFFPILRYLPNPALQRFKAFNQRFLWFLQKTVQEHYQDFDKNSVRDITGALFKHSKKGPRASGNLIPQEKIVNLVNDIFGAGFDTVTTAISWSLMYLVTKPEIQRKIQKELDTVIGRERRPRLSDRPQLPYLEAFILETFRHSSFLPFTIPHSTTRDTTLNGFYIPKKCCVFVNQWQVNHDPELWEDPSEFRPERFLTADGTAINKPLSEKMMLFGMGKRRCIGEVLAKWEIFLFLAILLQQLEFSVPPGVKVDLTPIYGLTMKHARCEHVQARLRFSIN
Summary of the method: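 Inhibition of CYP1A2 was measured in commercially available pooled human liver microsomes (0.2 mg protein/mL) using 7-ethoxyresorufin O-deethylation with 0.5 μmol/L ethoxyresorufin. Test compound at 1, 5, 10, 20 μmol/L in […] Hepes buffer was incubated at 37° C. after NADPH addition; methanol/acetonitrile=1/1 (v/v) stopped the reaction, and resorufin was read fluorescently.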

Solubility test = assay type: physicochemical; conditions: kinetic from dmso stock; for solubility kinetic at 16 h: 25 °C
Summary of the method: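 Dissolved concentration determined by LC/MS or SPE/MS (absolute calibration) in diluted filtrates, after 2 μL of 10 mmol/L DMSO stock was added to 198 μL JP 1st or JP 2nd fluid and equilibrated either 1 h with shaking at room temperature or 16 h standing at 25 °C.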

CYP2C9 = target: T4, CYP2C9 (Homo sapiens, UniProt P11712); experiment: CYP inhibition test (CYP2C9); assay type: in vitro ADME; conditions: pooled human liver microsomes; tolbutamide methyl-hydroxylation
T4 construct: The commercially available pooled human liver microsomes are used as an enzyme resource; from tissue; host or cells: pooled human liver microsomes
T4 sequence (P11712 whole entry): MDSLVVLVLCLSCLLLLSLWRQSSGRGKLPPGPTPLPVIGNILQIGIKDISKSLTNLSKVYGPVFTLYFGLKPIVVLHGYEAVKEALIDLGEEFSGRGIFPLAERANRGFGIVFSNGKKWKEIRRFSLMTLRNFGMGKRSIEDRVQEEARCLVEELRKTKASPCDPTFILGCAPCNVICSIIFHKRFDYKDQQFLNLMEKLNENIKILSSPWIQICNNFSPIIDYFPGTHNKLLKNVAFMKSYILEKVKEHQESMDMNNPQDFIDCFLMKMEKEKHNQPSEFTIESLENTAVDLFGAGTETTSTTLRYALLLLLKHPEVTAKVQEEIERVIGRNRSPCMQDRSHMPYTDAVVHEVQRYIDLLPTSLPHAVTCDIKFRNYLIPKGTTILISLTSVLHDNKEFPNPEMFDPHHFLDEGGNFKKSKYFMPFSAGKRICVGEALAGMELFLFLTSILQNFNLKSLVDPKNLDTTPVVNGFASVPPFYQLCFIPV
Summary of the method: as §1

[2] = tested on: Aβ production in neuroblastoma SH-SY5Y cells (SH/APPwt); experiment: β-amyloid (Aβ) production inhibitory effect in cell: 96-well; assay type: cell-based; conditions: Homo sapiens, Assay format 96-well
Method: Neuroblastoma SH-SY5V cells (SH/APPwt) with human wild-type R-APP excessively expressed therein were prepared at 8×10^5 cells/mL, and 150 μl portions thereof were inoculated into each well of a 96-well culture plate (Falcon). The cells were cultured for 2 hours at […]. in a 5% gaseous carbon dioxide incubator. […] Namely, the final DMSO concentration was 1%, and the amount of the cell culture was 200 μl. After the incubation was performed for 24 hours from the addition of the test compound, 100 μl of the culture supernatant was collected from each fraction. The amount of the Aβ in each fraction was measured. The Aβ amount was measured as follows. 10 μl of a homogeneous time resolved fluorescence (HTRF) measurement reagent (Amyloid β1-40 peptide: CIS bio international) and 10 μof the culture supernatant were put into a 384-well half area microplate (black microplate, Costar) and mixed with each other, and then left standing overnight at 4° C. while the light was shielded.

CYP3A4 = target: T5, CYP3A4 (Homo sapiens, UniProt P08684); experiment: CYP inhibition test (CYP3A4); assay type: in vitro ADME; conditions: pooled human liver microsomes; terfenadine hydroxylation
T5 construct: The commercially available pooled human liver microsomes are used as an enzyme resource; from tissue; host or cells: pooled human liver microsomes
T5 sequence (P08684 whole entry): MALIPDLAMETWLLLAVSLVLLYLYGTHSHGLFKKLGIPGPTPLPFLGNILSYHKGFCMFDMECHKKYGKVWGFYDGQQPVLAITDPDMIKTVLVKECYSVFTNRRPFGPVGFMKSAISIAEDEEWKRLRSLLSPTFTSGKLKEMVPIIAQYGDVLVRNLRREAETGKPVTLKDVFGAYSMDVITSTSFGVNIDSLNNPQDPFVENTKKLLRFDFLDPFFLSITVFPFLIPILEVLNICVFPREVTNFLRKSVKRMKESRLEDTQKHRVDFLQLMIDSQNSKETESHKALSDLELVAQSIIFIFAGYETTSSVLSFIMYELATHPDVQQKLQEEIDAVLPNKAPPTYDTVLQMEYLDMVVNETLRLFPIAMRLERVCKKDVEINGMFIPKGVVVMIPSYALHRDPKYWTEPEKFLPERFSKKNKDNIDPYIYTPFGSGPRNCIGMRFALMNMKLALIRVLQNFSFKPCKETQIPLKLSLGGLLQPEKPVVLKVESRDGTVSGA
Summary of the method: as §1

CYP2D6 = target: T6, CYP2D6 (Homo sapiens, UniProt P10635); experiment: CYP inhibition test (CYP2D6); assay type: in vitro ADME; conditions: pooled human liver microsomes; dextromethorphan O-demethylation
T6 construct: The commercially available pooled human liver microsomes are used as an enzyme resource; from tissue; host or cells: pooled human liver microsomes
T6 sequence (P10635 whole entry): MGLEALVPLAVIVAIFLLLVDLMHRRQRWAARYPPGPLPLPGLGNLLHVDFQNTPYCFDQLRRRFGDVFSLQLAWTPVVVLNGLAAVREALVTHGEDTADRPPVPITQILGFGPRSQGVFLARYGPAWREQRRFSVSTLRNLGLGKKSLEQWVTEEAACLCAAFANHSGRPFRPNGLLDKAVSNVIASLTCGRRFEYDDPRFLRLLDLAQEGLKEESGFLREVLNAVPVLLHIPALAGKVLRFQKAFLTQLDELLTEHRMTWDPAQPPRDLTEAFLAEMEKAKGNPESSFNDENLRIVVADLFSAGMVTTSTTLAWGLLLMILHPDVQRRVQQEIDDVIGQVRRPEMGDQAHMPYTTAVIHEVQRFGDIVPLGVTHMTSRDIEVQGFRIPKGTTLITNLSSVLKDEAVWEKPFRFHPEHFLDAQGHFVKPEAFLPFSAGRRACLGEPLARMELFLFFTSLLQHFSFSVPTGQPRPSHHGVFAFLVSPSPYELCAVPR
Source text: The CYP inhibition test is a test to assess the inhibitory effect of a compound of the present invention towards typical substrate metabolism reactions on CYP enzymes in human liver microsomes. The marker reactions on human main five CYP enzymes (CYP1A2, 2C9, 2C19, 2D6, and 3A4) are used as follows: 7-ethoxyresorufin O-deethylation (CYP1A2), tolbutamide methyl-hydroxylation (CYP2C9), mephenytoin 4′-hydroxylation (CYP2C19), dextromethorphan O-demethylation (CYP2D6), and terfenadine hydroxylation (CYP3A4). The commercially available pooled human liver microsomes are used as an enzyme resource.
The reaction conditions were as follows: substrate, 0.5 μmol/L ethoxyresorufin (CYP1A2), 100 μmol/L tolbutamide (CYP2C9), 50 μmol/L, S-mephenytoin (CYP2C19), 5 μmol/L dextromethorphan (CYP2D6), 1 μmol/L terfenadine (CYP3A4): reaction time, 15 minutes: reaction temperature, 37° C.; enzyme, pooled human liver microsomes 0.2 mg protein/mL; concentrations of the compound of the present invention, 1, 5, 10, 20 μmol/L (four points).
Five kinds of substrates, human liver microsomes, and a compound solution of the present invention in […] Hepes buffer were added to a 96-well plate at the composition as described above as a reaction solution. NADPH as a cofactor was added to this 96-well plate in order to initiate metabolism reactions. After the incubation at 37° C.for […], a methanol/acetonitrile=1/1 (v/v) solution was added to stop the reaction. After the centrifugation at 3000 rpm for 15 minutes, resorufin (CYP1A2 metabolite) in the supernatant was quantified by a fluorescent plate reader, and hydroxytolbutamide (CYP2C9 metabolite), 4′-hydroxymephenytoin (CYP2C19 metabolite), dextrorphan (CYP2D6 metabolite), and terfenadine alcohol metabolite (CYP3A4 metabolite) in the supernatant were quantified by LC/MS/MS.
The sample adding DMSO to a reaction system instead of compound of the present invention solution was adopted as a control (100%) because DMSO was used as a solvent to dissolve a compound of the present invention. Remaining activity (%) was calculated at each concentration of a compound of the present invention, and IC50 value was calculated by reverse presumption by a logistic model using a concentration and an inhibition rate.

Recombinant human BACE1 = target: T7, Recombinant human BACE1 (Homo sapiens, UniProt P56817); experiment: Assay of BACE1 inhibitory activity: 96-well; assay type: biochemical; conditions: Assay format 96-well
T7 construct: purchased R&D Systems
T7 sequence (P56817 46-501): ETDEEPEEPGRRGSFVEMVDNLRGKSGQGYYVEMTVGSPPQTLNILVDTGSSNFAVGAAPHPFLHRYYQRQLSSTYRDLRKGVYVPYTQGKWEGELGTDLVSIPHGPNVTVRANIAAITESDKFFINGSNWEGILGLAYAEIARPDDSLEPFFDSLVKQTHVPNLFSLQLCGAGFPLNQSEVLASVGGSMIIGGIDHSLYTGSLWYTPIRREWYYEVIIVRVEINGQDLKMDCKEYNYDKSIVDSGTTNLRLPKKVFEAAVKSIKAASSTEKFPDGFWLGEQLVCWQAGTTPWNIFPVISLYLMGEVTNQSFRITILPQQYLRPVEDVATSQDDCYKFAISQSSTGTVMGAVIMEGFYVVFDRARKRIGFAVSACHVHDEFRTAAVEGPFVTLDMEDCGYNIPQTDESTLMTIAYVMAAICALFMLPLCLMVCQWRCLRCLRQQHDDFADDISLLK
Method: 48.5 μL of substrate peptide solution (Biotin-XSEVNLDAEFRHDSGC-Eu: X=ε-amino-n-capronic acid. Eu=Europium cryplate) was added to each well of 96-hole half-area plate (a black plate: Costar), and after addition of 0.5 μl of the compound of the present invention (DMSO solution) and 1 μl of Recombinant human BACE1(R&D Systems), the reaction mixture was incubated at 30° C. for 3.5 hours. The substrate peptide was synthesized by reacting Cryptate TBPCOOH mono SMP (CIS bio international) with Biotin-XSEVNLDAEFRHDSGC (Peptide Institute, Inc.).
After the incubation for reaction, 50 μl of 8.0 μg/ml Streptavidin-XL665 (CIS bio international) dissolved in phosphate buffer (150 mmol/L […]—KH2PO4, pH 7.0, 0.008% Triton X-100, 0.8 mol/L KF) was added to each well and left stand at 30° C. for 45 minutes.

Metabolic stability test = assay type: in vitro ADME; conditions: human liver microsomes, 37° C., 30 minutes, NADPH
Summary of the method: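 Parent compound was measured by LC/MS/MS or SPE/MS after a methanol/acetonitrile quench and reported as % remaining, with the 0 min sample set to 100%. Incubations ran 30 min at 37 °C in pH 7.4 Tris buffer containing pooled human liver microsomes at 0.5 mg protein/mL and 1 mmol/L NADPH.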

[3] = JP 1st fluid, pH 1.2, simulated gastric fluid, read-out: JP1
[4] = JP 2nd fluid A, pH 6.8, aqueous buffer, read-out: JP2_μM

| SMILES | IC50 (CYP2C19) [µM] | IC50 (CYP1A2) [µM] | solubility kinetic at 16 h (Solubility test; [3]) [µM] | solubility kinetic at 16 h (Solubility test; [4]) [µM] | IC50 (CYP2C9) [µM] | IC50 [2] [µM] | IC50 (CYP3A4) [µM] | IC50 (CYP2D6) [µM] | IC50 (Recombinant human BACE1) [µM] | remaining % (Metabolic stability test) [%] | solubility kinetic at 1 h (Solubility test; [3]) [µM] | solubility kinetic at 1 h (Solubility test; [4]) [µM] | hERG_3 uM_% [1] [%] |
| --- | --- | --- | --- | --- | --- | --- | --- | --- | --- | --- | --- | --- | --- |
| CO[C@H]1[C@@H](CF)OC(N)=N[C@]1(C)c1cc(NC(=O)c2ncc(Cl)cc2Cl)ccc1Cl [Compound I-22] | ≥ 20 | ≥ 20 | 31.2 (≈ 14.8 µg/mL) | > 50 | ≥ 20 | 0.00422 | ≥ 20 | ≥ 10 | 0.023 |  |  |  | 14.2 |
| CO[C@H]1[C@@H](C(F)(F)F)OC(N)=N[C@]1(C)c1cc(NC(=O)c2ccc(C#N)cn2)ccc1F [Compound I-34] | ≥ 20 | ≥ 20 | 44.4 (≈ 20 µg/mL) | > 50 | ≥ 20 | 0.00185 | ≥ 20 | ≥ 20 | 0.0165 |  |  |  | 15.5 |
| C[C@]1(c2nc(NC(=O)c3ccc(Cl)cn3)ccc2F)N=C(N)S[C@H](CF)[C@@H]1F [Compound I-6] | ≥ 10 | ≥ 20 |  |  |  | 0.00129 | ≥ 20 |  | 0.015 |  |  |  |  |
| C[C@]1(c2nc(NC(=O)c3cnc(OCF)cn3)ccc2F)N=C(N)S[C@H](CF)[C@@H]1F [Compound I-5] | ≥ 20 | ≥ 20 | 34.3 (≈ 15.2 µg/mL) | > 50 | ≥ 10 | 0.00288 | ≥ 20 |  | 0.0299 |  |  |  | 27.7 |
| COc1cnc(C(=O)Nc2ccc(F)c([C@@]3(C)N=C(N)O[C@H]4[C@@H]3OCC4(F)F)c2)cn1 [Compound I-36] | ≥ 20 | ≥ 20 |  |  | ≥ 20 | 0.00229 | ≥ 20 | ≥ 20 | 0.022 |  | 37.6 (≈ 16.4 µg/mL) | 15.9 (≈ 6.95 µg/mL) | 29.9 |
| C[C@]1(c2cc(NC(=O)c3ccc(C#N)cn3)ccc2F)N=C(N)OCC12CC(F)(F)C2 [Compound I-43] | ≥ 20 | ≥ 20 | 29.9 (≈ 12.8 µg/mL) | > 50 | ≥ 20 | 0.000615 | ≥ 20 | ≥ 20 | 0.0218 | 84.5 |  |  |  |

More lines, main results first:

| IC50 (CYP2C19) [µM] | IC50 (CYP1A2) [µM] | solubility kinetic at 16 h (Solubility test; [3]) [µM] | solubility kinetic at 16 h (Solubility test; [4]) [µM] | IC50 (CYP2C9) [µM] | IC50 [2] [µM] | IC50 (CYP3A4) [µM] | IC50 (CYP2D6) [µM] | IC50 (Recombinant human BACE1) [µM] | remaining % (Metabolic stability test) [%] | solubility kinetic at 1 h (Solubility test; [3]) [µM] | solubility kinetic at 1 h (Solubility test; [4]) [µM] | SMILES | hERG_3 uM_% [1] [%] |
| --- | --- | --- | --- | --- | --- | --- | --- | --- | --- | --- | --- | --- | --- |
| ≥ 20 | ≥ 20 | 28.8 (≈ 12.7 µg/mL) | > 50 | ≥ 20 | 0.00293 | ≥ 20 |  |  |  |  |  | CO[C@H]1[C@@H](CF)OC(N)=N[C@]1(C)c1cc(NC(=O)c2ccc(Cl)cn2)ccc1Cl [Compound I-21] | 51.1 |
| ≥ 20 |  | 41.9 (≈ 19.2 µg/mL) | > 50 | ≥ 20 | 0.00176 | ≥ 20 | ≥ 20 | 0.0339 | 76 |  |  | CO[C@H]1[C@@H](CF)OC(N)=N[C@]1(C)c1cc(NC(=O)c2ncc(Cl)cc2Cl)ccc1F [Compound I-26] | 29.6 |
| ≥ 20 | ≥ 20 | 46.7 (≈ 19.8 µg/mL) | > 50 | ≥ 20 | 0.00153 | ≥ 20 | ≥ 20 | 0.0344 | 86.6 |  |  | CO[C@H]1[C@@H](CF)OC(N)=N[C@]1(C)c1cc(NC(=O)c2ccc(Cl)cn2)ccc1F [Compound I-23] |  |
